The structures appear in SMILES notation.

Usually Ki stands for a dissociation constant, usually derived from enzyme kinetics or from competition with a known ligand.

The target of experiment [1] is purified Human plasma Kallikrein (Homo sapiens (Human), UniProt P03952). The experiment is described as follows: Kallikrein Assay. It counts as biochemical. The settings on record: purified Human plasma Kallikrein 0.5 nM; substrate Acetyl-K-P-R-AFC; 50 mM HEPES pH 7.4; Ki from IC50 by Cheng Prusoff. In outline: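 Purified human plasma kallikrein (0.5 nM) with fluorogenic Ac-K-P-R-AFC ([…]) in 50 mM HEPES pH 7.4, 150 mM NaCl, 5 mM CaCl2, 0.1% PEG 8000, at rt or 37 °C. Substrate hydrolysis rate read with and without inhibitor; IC50 from four-parameter logistic fit, converted to Ki by Cheng–Prusoff.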

The target in experiment [2] is purified human Factor XIa (Homo sapiens (Human), UniProt P03951). The experiment is described as follows: Factor XIa Assay. The following applies: purified human Factor XIa 40 pM; substrate Z-Gly-Pro-Arg-AFC 100 μM; 50 mM HEPES pH 7.4; read-out: Human FXIa Ki. It counts as biochemical. In a few lines:
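Ki obtained from the dependence of uninhibited/inhibited initial-velocity ratio on inhibitor concentration, under a competitive-inhibition model. Reactions used 100 μM Z-Gly-Pro-Arg-AFC and 40 pM final human Factor XIa in pH 7.4 HEPES buffer with NaCl, CaCl2 and PEG 8000; run at rt or 37° C following pre-equilibration.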

Sequence of purified human Factor XIa (P03951 388-625): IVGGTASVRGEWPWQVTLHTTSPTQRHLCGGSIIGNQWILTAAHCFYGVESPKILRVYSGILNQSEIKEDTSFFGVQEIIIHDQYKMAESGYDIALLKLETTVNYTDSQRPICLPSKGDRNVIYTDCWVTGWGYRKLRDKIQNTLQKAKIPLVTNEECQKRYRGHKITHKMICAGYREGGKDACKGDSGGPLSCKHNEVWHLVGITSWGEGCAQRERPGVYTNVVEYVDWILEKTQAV
Sequence of purified human Factor XIa (P03951 19-387 partner): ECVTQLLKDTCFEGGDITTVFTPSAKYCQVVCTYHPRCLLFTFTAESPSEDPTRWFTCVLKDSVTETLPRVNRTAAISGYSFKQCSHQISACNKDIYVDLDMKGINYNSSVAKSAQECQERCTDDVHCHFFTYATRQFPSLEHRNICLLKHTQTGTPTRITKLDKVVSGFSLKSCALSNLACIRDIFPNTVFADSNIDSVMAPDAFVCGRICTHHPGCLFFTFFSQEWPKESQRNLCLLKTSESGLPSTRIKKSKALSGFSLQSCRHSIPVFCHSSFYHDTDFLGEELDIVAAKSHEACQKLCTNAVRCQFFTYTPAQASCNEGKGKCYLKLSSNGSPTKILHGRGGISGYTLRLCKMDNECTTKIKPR
Sequence of purified Human plasma Kallikrein (P03952 391-638): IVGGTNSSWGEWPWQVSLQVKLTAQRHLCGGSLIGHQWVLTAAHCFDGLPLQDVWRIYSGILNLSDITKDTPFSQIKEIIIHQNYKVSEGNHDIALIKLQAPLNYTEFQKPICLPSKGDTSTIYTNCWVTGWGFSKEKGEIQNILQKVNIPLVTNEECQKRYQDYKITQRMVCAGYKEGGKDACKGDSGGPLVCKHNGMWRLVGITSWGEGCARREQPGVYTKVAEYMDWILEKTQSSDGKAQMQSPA
Sequence of purified Human plasma Kallikrein (P03952 20-390 partner): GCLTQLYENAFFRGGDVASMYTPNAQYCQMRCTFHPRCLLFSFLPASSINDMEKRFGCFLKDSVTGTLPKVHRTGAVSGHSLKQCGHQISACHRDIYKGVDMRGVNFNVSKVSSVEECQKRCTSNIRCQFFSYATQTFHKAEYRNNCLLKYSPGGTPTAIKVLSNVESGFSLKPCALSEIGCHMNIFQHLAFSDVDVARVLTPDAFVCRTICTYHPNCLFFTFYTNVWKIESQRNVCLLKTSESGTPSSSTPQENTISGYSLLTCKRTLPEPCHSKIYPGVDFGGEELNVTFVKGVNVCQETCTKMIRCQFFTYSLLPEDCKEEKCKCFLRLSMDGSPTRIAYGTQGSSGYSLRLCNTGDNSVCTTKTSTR

For `O=C1CCCC[C@H](c2ccc(-c3cc(Cl)ccc3-n3cnnn3)cn2)c2cccc(c2)-c2cc(F)ccc2N1` [Example 1-a, (S)-9-(5-(5-Chloro-2-(1H-tetrazol-1-yl)phenyl)pyridin-2-yl)-2^5-fluoro-3-aza-1(1,3),2(1,2)-dibenzenacyclononaphan-4-one], the Ki worked out at 205 nM in experiment [1] and 22.3 nM in experiment [2].

`CCOC(=O)Nc1ccc2c(c1)NC(=O)CCCC[C@H](c1ccc(-c3c(F)ccc(Cl)c3F)c[n+]1[O-])c1cccc-2c1` [Example 44, (s)-5-(3-chloro-2,6-difluorophenyl)-2-(2^4-((ethoxycarbonyl)amino)-4-oxo-3-aza-1(1,3),2(1,2)-dinenzenacyclononaphane-9-yl)pyridine 1-oxide]: the figures for the Ki in experiment [1] and in experiment [2] were 2.7 nM and 1.23 nM, respectively.

As to `COC(=O)Nc1ccc2c(c1)NC(=O)CCCC[C@H](c1ccc(-c3c(F)cccc3F)c[n+]1[O-])c1nc-2c(C)[nH]1` (single isomer, unassigned) [Example 119], the figures for the Ki in experiment [1] and in experiment [2] were 1.68 nM and 0.54 nM, respectively.

As for `COC(=O)Nc1ccc2c(c1)NC(=O)CCCCC(c1ccc(-c3c(F)ccc(Cl)c3F)c[n+]1[O-])c1cc[n+]([O-])c-2c1` (stereo not drawn) [Example 94, 9-(5-(3-Chloro-2,6-difluorophenyl)-1-oxidopyridin-2-yl)-2^4-((methoxycarbonyl)amino)-4-oxo-3-aza-1(2,4)-pyridin-1-iuma-2(1,2) -benzenacyclononaphane 1-oxide], the Ki in experiment [1] turned out to be 11.3 nM; in experiment [2], 5.1 nM.

As to `Cc1[nH]c2nc1-c1ccc(N)cc1NC(=O)CCCC[C@@H]2c1ccc(-c2c(F)ccc(Cl)c2F)c[n+]1[O-]` (single isomer, unassigned) [Example 128], the Ki in experiment [1] worked out at 0.74 nM; in experiment [2], 0.14 nM.

As for `COC(=O)Nc1ccc2c(c1)NC(=O)CCCC[C@H](c1ccc(-c3cc(Cl)ccc3OC(F)F)c[n+]1[O-])c1cccc-2c1` (single isomer, unassigned) [Example 33], the inhibitory constant (Ki) in experiment [1] came out at 1.67 nM; in experiment [2] it was 0.28 nM.

Take `C[C@H]1CCC[C@H](c2ccc(-c3cc(Cl)ccc3-n3cnnn3)c[n+]2[O-])c2cccc(c2)-c2cc(F)ccc2NC1=O` [Example 3-b, 5-(5-chloro-2-(1H-tetrazol-1-yl)phenyl)-2-((5S,9S)-2^5-fluoro-5-methyl-4-oxo-3-aza-1(1,3),2(1,2)-dibenzenacyclononaphane-9-yl)pyridine 1-oxide]: the Ki turned out to be 10.6 nM in experiment [1] and 0.57 nM in experiment [2].

Consider `COC(=O)Nc1ccc2c(c1)NC(=O)CCCC[C@H](c1ccc(-c3c(F)ccc(Cl)c3F)c[n+]1[O-])c1cc-2ncn1` (single isomer, unassigned) [Example 75], for which the Ki in experiment [1] was determined as 8.42 nM; in experiment [2] it was 2.7 nM.

For the molecule `COC(=O)Nc1ccc2c(c1)NC(=O)CCCCC(c1ccc(-c3cc(Cl)ccc3-n3cc(C(F)F)nn3)c[n+]1[O-])c1cccc-2c1` (single isomer, unassigned) [Example 36-a, 5-(5-chloro-2-(4-(difluoromethyl)-1H-1,2,3-triazol-1-yl)phenyl)-2-(2^4-((methoxycarbonyl)amino)-4-oxo-3-aza-1(1,3),2(1,2)-dibenzenacyclononaphane-9-yl)pyridine 1-oxide], the Ki in experiment [1] amounted to 0.81 nM; in experiment [2] it was 0.26 nM.

For `CCc1[nH]c2nc1-c1ccc(NC(=O)OC)cc1NC(=O)C(C)CCC[C@@H]2c1ccc(-c2c(F)cccc2F)c[n+]1[O-]` (single isomer, unassigned) [Example 144], the figures for the Ki in experiment [1] and in experiment [2] were 1.35 nM and 0.46 nM, respectively.

For the molecule `N#Cc1cnn(-c2ccc(Cl)cc2-c2ccc([C@H]3CCCCC(=O)Nc4cnn(C(F)F)c4-c4cccc3c4)[n+]([O-])c2)c1` (single isomer, unassigned) [Example 169], the Ki was found to be 94.2 nM in experiment [1] and 3.8 nM in experiment [2].

`COC(=O)Nc1ccc2c(c1)NC(=O)CCCC[C@H](c1ccc(-c3ccccc3C(F)(F)F)c[n+]1[O-])c1nc-2c(C)[nH]1` (single isomer, unassigned) [Example 121]: the figures for the Ki in experiment [1] and in experiment [2] were 3.9 nM and 0.43 nM, respectively.

With `COC(=O)Nc1ccc2c(c1)NC(=O)CCCCC(c1ccc(-c3c(OC(F)F)ccc(Cl)c3F)c[n+]1[O-])c1nc-2c[nH]1` (single isomer, unassigned) [Example 100-a, (Z)-5-(3-Chloro-6-(difluoromethoxy)-2-fluorophenyl)-2-(2^4-((methoxycarbonyl)amino)-4-oxo-1^1H-3-aza-1(4,2)-imidazola-2(1,2) -benzenacyclononaphane-9-yl)pyridine 1-oxide], the results for the Ki in experiment [1] and in experiment [2] were 1.02 nM and 0.33 nM, respectively.

For `C[C@@H]1CCC[C@H](c2ccc(-c3cc(Cl)ccc3-n3cnnn3)c[n+]2[O-])c2cccc(c2)-c2cc(F)ccc2NC1=O` [Example 3-d, 5-(5-Chloro-2-(1H-tetrazol-1-yl)phenyl)-2-((5R,9S)-2^5-fluoro-5-methyl-4-oxo-3-aza-1(1,3),2(1,2)-dibenzenacyclononaphane-9-yl)pyridine 1-oxide], the Ki was 0.59 nM in experiment [1] and 0.18 nM in experiment [2].

As to `COC(=O)Nc1ccc2c(c1)NC(=O)CC1CC1CC(c1ccc(-c3c(OC(F)F)ccc(Cl)c3F)c[n+]1[O-])c1nc-2c(C)[nH]1` (racemic) [Example 159], the results for the Ki in experiment [1] and in experiment [2] were 3.5 nM and 0.66 nM, respectively.

On to `COC(=O)Nc1ccc2c(c1)NC(=O)CCCCC(c1ccc(-c3cc(Cl)ccc3-n3cnnn3)c[n+]1[O-])c1cc-2[n+]([O-])cc1F` (single isomer, unassigned) [Example 81-a, 9-(5-(5-chloro-2-(1h-tetrazol-1-yl)phenyl)-1-oxidopyridin-2-yl)-1^5-fluoro-2^4-((methoxycarbonyl)amino)-4-oxo-3-aza-1(2,4)-pyridin-1-iuma-2(1,2)-benzenacyclononaphane 1^1-oxide], for which the Ki in experiment [1] is 0.46 nM; in experiment [2] it was 0.14 nM.

`COC(=O)Nc1ccc2c(c1)NC(=O)CCCCC(c1ccc(-c3cc(Cl)ccc3-n3cnnn3)cn1)c1cc-2ncc1F` (stereo not drawn) [Example 57, methyl (9-(5-(5-chloro-2-(1h-tetrazol-1-yl)phenyl)pyridin-2-yl)-1^5-fluoro-4-oxo-3-aza-1(2,4)-pyridina-2(1,2)-benzenacyclononaphane-2^4-yl)carbamate]: the Ki stood at 12.1 nM in experiment [1] and 0.52 nM in experiment [2].

In the case of `COC(=O)Nc1ccc2c(c1)NC(=O)C[C@H]1C[C@@H]1C[C@H](c1ccc(-c3c(F)ccc(Cl)c3F)c[n+]1[O-])c1cccc-2c1` (single isomer, unassigned) [Example 66], the Ki in experiment [1] worked out at 10.2 nM; in experiment [2], 2.1 nM.

Turning to `COC(=O)Nc1ccc2c(c1)NC(=O)C(C)CCCC(c1ccc(-c3c(F)ccc(Cl)c3F)c[n+]1[O-])c1ccc(F)c-2c1` (single isomer, unassigned) [Example 86-d, 5-(3-Chloro-2,6-difluorophenyl)-2-(1^6-fluoro-2^4-((methoxycarbonyl)amino)-5-methyl-4-oxo-3-aza-1(1,3),2(1,2) -dibenzenacyclononaphane-9-yl)pyridine 1-oxide], the Ki is 5.36 nM in experiment [1] and 1.65 nM in experiment [2].

For the molecule `COC(=O)Nc1ccc2c(c1)NC(=O)CCCCC(c1ccc(-c3c(F)ccc(Cl)c3F)c[n+]1[O-])c1cc-2cc[n+]1[O-]` (stereo not drawn) [Example 83, 9-(5-(3-chloro-2,6-difluorophenyl)-1-oxidopyridin-2-yl)-2^4-((methoxycarbonyl)amino)-4-oxo-3-aza-1(4,2)-pyridin-1-iuma-2(1,2)-benzenacyclononaphane 1^1-oxide], the inhibition constant (Ki) was determined as 5.47 nM in experiment [1] and 2.2 nM in experiment [2].

On to `COC(=O)Nc1ccc2c(c1)NC(=O)CC1CC1CC(c1ccc(-c3c(C(F)F)ccc(Cl)c3F)c[n+]1[O-])c1nc-2c(C)[nH]1` (racemic) [Example 157], for which the values for the Ki in experiment [1] and in experiment [2] were 2.04 nM and 0.45 nM, respectively.

Consider `COC(=O)Nc1ccc2c(c1)NC(=O)CCCC[C@H](c1ccc(-c3cc(Cl)ccc3-n3cc(C(F)(F)F)nn3)c[n+]1[O-])c1cccc-2c1` [Example 39, (S)-5-(5-chloro-2-(4-(trifluoromethyl)-1H-1,2,3-triazol-1-yl)phenyl)-2-(2^4-((methoxycarbonyl)amino)-4-oxo-3-aza-1(1,3),2(1,2)-dibenzenacyclononaphane-9-yl)pyridine 1-oxide], for which the figures for the Ki in experiment [1] and in experiment [2] were 0.81 nM and 0.26 nM, respectively.

As to `COC(=O)Nc1ccc2c(c1)NC(=O)CCCCC(c1ccc(-c3c(F)ccc(Cl)c3F)c[n+]1[O-])c1nc-2c(C)[nH]1` (single isomer, unassigned) [Example 111-a, (Z)-5-(3-chloro-2,6-difluorophenyl)-2-(2^4-((methoxycarbonyl)amino)-1^5-methyl-4-oxo-1^1H-3-aza-1(4,2)-imidazola-2(1,2) -benzenacyclononaphane-9-yl)pyridine 1-oxide], the values for the Ki in experiment [1] and in experiment [2] were 0.34 nM and 0.19 nM, respectively.

Turning to `COC(=O)Nc1ccc2c(c1)NC(=O)CCCC[C@H](c1ccc(-c3c(C(F)F)ccc(Cl)c3F)c[n+]1[O-])c1nc-2c(C)[nH]1` (single isomer, unassigned) [Example 124], the Ki was 0.73 nM in experiment [1] and 0.2 nM in experiment [2].

Values taken from patent US10214512B2, “Factor XIA inhibitors” (MERCK SHARP & DOHME CORP., priority 2015, dated 2019).
